Results on 73 compounds are retold here after US8722670B2, “Selective NR2B antagonists” (Bristol-Myers Squibb Company, priority 2011, dated 2014).

Like-named read-outs stand apart in the source and are kept apart here.

In this experiment the target is T1, hNR2B (Homo sapiens, UniProt Q05586+Q13224).
T1 construct: expressed in transfected cells; host or cells: Xenopus laevis oocytes, cRNA-injected
Put plainly: Electrophysiology NMDA receptor experiments: two electrode voltage-clamp in Xenopus laevis oocytes, hNR2B IC50. Format: cell-based. To be noted: 50 μM glutamate, 30 μM glycine.

Where [1] appears, read: hNR2B activity class, read-out: Activity.
[2] abbreviates: voltage clamp -40 mV, read-out: hNR2B IC50.

T1 sequence (Q13224 27-1484, other chains not shown): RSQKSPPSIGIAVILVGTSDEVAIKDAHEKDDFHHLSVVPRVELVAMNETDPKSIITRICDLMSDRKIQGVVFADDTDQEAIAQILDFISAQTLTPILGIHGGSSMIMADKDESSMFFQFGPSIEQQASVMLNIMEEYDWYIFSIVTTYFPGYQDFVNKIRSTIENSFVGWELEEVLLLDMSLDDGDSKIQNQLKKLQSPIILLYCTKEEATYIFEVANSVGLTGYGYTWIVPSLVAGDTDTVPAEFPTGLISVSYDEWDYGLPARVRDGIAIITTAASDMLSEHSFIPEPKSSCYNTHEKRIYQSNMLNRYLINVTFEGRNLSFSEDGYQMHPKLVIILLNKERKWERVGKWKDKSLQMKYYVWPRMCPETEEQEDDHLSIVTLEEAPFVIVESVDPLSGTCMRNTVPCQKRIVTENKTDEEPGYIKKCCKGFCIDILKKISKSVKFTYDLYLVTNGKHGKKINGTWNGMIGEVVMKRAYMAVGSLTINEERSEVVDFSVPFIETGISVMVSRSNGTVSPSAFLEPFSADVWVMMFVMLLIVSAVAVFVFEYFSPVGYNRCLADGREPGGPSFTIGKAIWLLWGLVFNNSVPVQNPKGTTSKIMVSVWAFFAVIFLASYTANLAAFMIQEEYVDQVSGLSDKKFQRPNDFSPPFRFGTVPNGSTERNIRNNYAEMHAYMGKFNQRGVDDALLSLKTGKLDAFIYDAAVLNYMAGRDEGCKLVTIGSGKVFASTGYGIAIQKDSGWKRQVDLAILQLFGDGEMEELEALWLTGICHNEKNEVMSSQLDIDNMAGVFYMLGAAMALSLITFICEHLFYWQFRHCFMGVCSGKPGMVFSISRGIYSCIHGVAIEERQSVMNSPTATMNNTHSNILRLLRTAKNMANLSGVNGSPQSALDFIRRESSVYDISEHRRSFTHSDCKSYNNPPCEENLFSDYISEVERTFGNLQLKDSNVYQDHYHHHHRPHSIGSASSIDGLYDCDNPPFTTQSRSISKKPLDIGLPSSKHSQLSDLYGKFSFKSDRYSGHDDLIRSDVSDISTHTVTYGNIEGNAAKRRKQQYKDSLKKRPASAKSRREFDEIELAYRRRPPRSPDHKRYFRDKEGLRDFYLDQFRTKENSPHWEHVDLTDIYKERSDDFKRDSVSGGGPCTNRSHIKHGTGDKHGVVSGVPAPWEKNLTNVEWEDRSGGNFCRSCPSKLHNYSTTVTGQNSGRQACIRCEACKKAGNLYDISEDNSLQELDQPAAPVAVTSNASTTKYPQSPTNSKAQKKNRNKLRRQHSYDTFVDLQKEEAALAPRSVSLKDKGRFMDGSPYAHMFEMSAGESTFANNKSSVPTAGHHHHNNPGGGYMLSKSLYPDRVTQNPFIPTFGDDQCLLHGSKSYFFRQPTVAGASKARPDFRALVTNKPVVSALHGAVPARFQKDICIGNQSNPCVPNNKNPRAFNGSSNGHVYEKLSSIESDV
Procedure: Stage V and VI oocytes were surgically removed from the ovaries of large, well-fed and healthy Xenopus laevis anesthetized with 3-amino-benzoic acid ethyl ester (3 gm/l). […] Oocytes were then washed in the same solution supplemented with 1.8 mM CaCl2 and maintained in Barth's solution comprised of (in mM): 88 NaCl, 1 KCl, 2.4 NaHCO3, 10 HEPES, 0.82 MgSO4, 0.33 Ca(NO3)2, and 0.91 CaCl2 and supplemented with 100 μg/ml gentamycin, 10 μg/ml streptomycin, and 10 μg/ml penicillin.
Two electrode voltage-clamp recordings were made 2-7 days post-injection. Oocytes were placed in a dual-track plexiglass recording chamber with a single perfusion line that splits in a Y-configuration to perfuse two oocytes. Dual recordings were made at room temperature (23° C.) using two Warner OC725B two-electrode voltage clamp amplifiers, arranged as recommended by the manufacturer. Glass microelectrodes (1-10 Megaohms) were filled with 300 mM KCl (voltage electrode) or 3 M KCl (current electrode). The bath clamps communicated across silver chloride wires placed into each side of the recording chamber, both of which were assumed to be at a reference potential of 0 mV. Oocytes were perfused with a solution comprised of (in mM) 90 NaCl, 1 KCl, 10 HEPES, 10 EDTA and 0.5 BaCl2; pH 7.4, adjusted by addition of NaOH. Oocytes were recorded under voltage clamp at −40 mV. Final concentrations for glutamate and glycine were 50 μM and 30 μM, respectively. […] Dose response curves consisting of four to eight concentrations were obtained in this manner. The baseline leak current at −40 mV was measured before and after recording, and the full recording linearly corrected for any change in leak current. The level of inhibition by applied experimental compounds was expressed as a percent of the initial glutamate response, and averaged together across oocytes from multiple experiments.
For NMDA receptor subtype selectivity experiments human GluN1/GluN2A, GluN1/GluN2C, and GluN1/GluN2D cRNAs were expressed in Xenopus laevis as described above. Here, 10 μM concentrations of the antagonist was perfused with 50 μM glutamate and 30 μM glycine onto the oocyte for two min and the remaining current in the presence of the antagonist was compared to the maximal current obtained with 50 μM glutamate and 30 μM glycine alone (defined as 100%). When IC50 determinations were made against other NMDA receptor subtypes the protocol as described above was followed.

In the case of `CC(Oc1ccc2[nH]c(=O)ccc2c1)c1nnc(Nc2ccc(Cl)c(Cl)c2)o1` (single isomer, unassigned) [Example 109], under setting [1], the IC50 is less than 200 nM. Regarding `O=C1CCc2cc(OCc3nnc(Nc4ccc(Cl)cc4)o3)ccc2N1` [Example 1, 6-((5-(4-chlorophenylamino)-1,3,4-oxadiazol-2-yl)methoxy)-3,4-dihydroquinolin-2(1H)-one], the IC50 under setting [2] was 715 nM. Same read-out and setting: to `O=c1ccc2cc(OCc3nnc(-c4ccc(Cl)c(Cl)c4)o3)ccc2[nH]1` [Example 2, 6-((5-(3,4-dichlorophenyl)-1,3,4-oxadiazol-2-yl)methoxy)quinolin-2(1H)-one] belongs greater than 10000 nM; to `CC(C)OC(=O)Nc1ccc(OCc2nnc(Nc3ccc(Cl)c(Cl)c3)o2)cc1` [Example 3, Isopropyl 4-((5-(3,4-dichlorophenylamino)-1,3,4-oxadiazol-2-yl)methoxy)phenyl carbamate], 7300 nM; to `O=C1CCc2cc(OCc3nnc(Nc4ccc(Br)cc4)o3)ccc2N1` [Example 4], 265 nM. As for `O=C1CCc2cc(OCc3nnc(Nc4ccc(Cl)c(Cl)c4)o3)ccc2N1` [Example 5], the IC50 under setting [2] is 57 nM. Take `O=C1Cc2cc(OCc3nnc(Nc4ccc(Cl)c(Cl)c4)o3)ccc2N1` [Example 8]: the IC50 under setting [1] is less than 200 nM. In the case of `O=C1Cc2cc(OCc3nnc(NCc4ccc(Cl)c(Cl)c4)o3)ccc2N1` [Example 9], under setting [1], the IC50 is less than 200 nM. Same read-out and setting: the same measure for `O=c1ccc2cc(OCc3nnc(Nc4ccc(Cl)c(Cl)c4)o3)ccc2[nH]1` [Example 10]: less than 200 nM.

With `O=c1ccc2cc(OCc3nnc(Nc4ccc(C(F)(F)F)cc4)o3)ccc2[nH]1` [Example 11], the IC50 under setting [2] worked out at 55 nM.

As to `O=c1ccc2cc(OCc3nnc(Nc4ccc(Cl)cc4)o3)ccc2[nH]1` [Example 12], under setting [1], the IC50 is less than 200 nM.

`O=c1ccc2cc(OCc3nnc(Nc4ccc(OC(F)(F)F)cc4)o3)ccc2[nH]1` [Example 13]: the IC50 under setting [1] was less than 200 nM.

Regarding `O=C1CCc2cc(OCc3nnc(Nc4ccc(OC(F)(F)F)cc4)o3)ccc2N1` [Example 14], the IC50 under setting [1] lay within 201 to 1000 nM. As to `O=C1CCc2cc(OCc3nnc(Nc4ccc(Cl)cn4)o3)ccc2N1` [Example 15], the IC50 under setting [1] is greater than 10000 nM. On the same count and under the same terms, to `O=C1CCc2cc(OCc3nnc(Nc4ccc(OC(F)F)cc4)o3)ccc2N1` [Example 16] belongs 201 to 1000 nM. As for `O=c1ccc2cc(OCc3nnc(Nc4ccc(OC(F)F)cc4)o3)ccc2[nH]1` [Example 17], the IC50 under setting [2] came out at 80 nM. Turning to `CCOC(=O)Cc1ccc(Nc2nnc(COc3ccc4c(c3)CCC(=O)N4)o2)cc1` [Example 18], the IC50 under setting [1] is greater than 10000 nM.

On to `O=C1CCc2cc(OCc3nnc(NCc4ccc(Cl)cc4)o3)ccc2N1` [Example 20], for which the IC50 under setting [2] came out at 476 nM.

For `O=C1CCc2cc(OCc3nnc(NCc4ccc(Cl)c(Cl)c4)o3)ccc2N1` [Example 21], the IC50 under setting [1] is less than 200 nM. For the compound `O=c1ccc2cc(OCc3nnc(NCc4ccc(Cl)c(Cl)c4)o3)ccc2[nH]1` [Example 22], under setting [1], the IC50 was less than 200 nM. Still for that read-out and setting: the same measure for `O=C1CCc2cc(OCc3nnc(NCc4ccc(OC(F)(F)F)cc4)o3)ccc2N1` [Example 23]: less than 200 nM.

As for `O=c1ccc2cc(OCc3nnc(NCc4ccc(Cl)nc4)o3)ccc2[nH]1` [Example 24], the IC50 was 1000 to 10000 nM (Activity, hNR2B activity class) and 7240 nM (hNR2B IC50 (nM), voltage clamp -40 mV). Turning to `O=C1CCc2cc(OCc3nnc(NCc4ccc(Cl)nc4)o3)ccc2N1` [Example 25], the IC50 under setting [1] is greater than 10000 nM.

`O=c1ccc2cc(OCc3nnc(NCc4ccc(OC(F)(F)F)cc4)o3)ccc2[nH]1` [Example 26]: the IC50 under setting [1] was less than 200 nM. Still for that read-out and setting: to `O=c1ccc2cc(OCc3nnc(NCc4ccc(OC(F)F)cc4)o3)ccc2[nH]1` [Example 27] belongs less than 200 nM.

Take `O=C1CCc2cc(OCc3nnc(NCc4ccc(OC(F)F)cc4)o3)ccc2N1` [Example 28]: under setting [1], the IC50 is less than 200 nM. Same read-out and setting: to `CS(=O)(=O)Nc1ccc(OCc2nnc(Nc3ccc(Cl)c(Cl)c3)o2)cc1` [Example 29] belongs less than 200 nM. Take `CS(=O)(=O)Nc1ccc(OCc2nnc(NCc3ccc(Cl)c(Cl)c3)o2)cc1` [Example 30]: under setting [2], the IC50 stood at 19 nM. Turning to `CCOC(=O)Nc1ccc(OCc2nnc(Nc3ccc(Cl)c(Cl)c3)o2)cc1` [Example 31], the IC50 under setting [1] is greater than 10000 nM. Turning to `CCOC(=O)Nc1ccc(OCc2nnc(NCc3ccc(Cl)c(Cl)c3)o2)cc1` [Example 32], the IC50 under setting [2] stood at 2120 nM. For `O=c1ccc2cc(OCc3nnc(Nc4ccccc4F)o3)ccc2[nH]1` [Example 33], the IC50 under setting [1] is greater than 10000 nM. The same measure, in the same setting: to `O=c1ccc2cc(OCc3nnc(Nc4ccccc4)o3)ccc2[nH]1` [Example 34] belongs 1000 to 10000 nM.

Regarding `O=c1ccc2cc(OCc3nnc(Nc4ccc(Cl)cc4F)o3)ccc2[nH]1` [Example 35], under setting [2], the IC50 stood at 884 nM.

For the compound `O=c1ccc2cc(OCc3nnc(Nc4cccc(F)c4)o3)ccc2[nH]1` [Example 39], the IC50 under setting [1] lay in the range of 1000 to 10000 nM.

Turning to `O=c1ccc2cc(OCc3nnc(Nc4ccc(F)cc4)o3)ccc2[nH]1` [Example 40], the IC50 under setting [1] was 1000 to 10000 nM. Still for that read-out and setting: to `O=c1ccc2cc(OCc3nnc(Nc4ccccc4Cl)o3)ccc2[nH]1` [Example 41] belongs greater than 10000 nM; to `O=c1ccc2cc(OCc3nnc(Nc4cccc(C(F)(F)F)c4)o3)ccc2[nH]1` [Example 42], 201 to 1000 nM; to `Cc1ccc(Nc2nnc(COc3ccc4[nH]c(=O)ccc4c3)o2)cc1` [Example 45], 201 to 1000 nM. Same read-out and setting: the same measure for `Cc1cccc(Nc2nnc(COc3ccc4[nH]c(=O)ccc4c3)o2)c1` [Example 46]: 1000 to 10000 nM.

As for `O=c1ccc2cc(OCc3nnc(Nc4ccc(Cl)c(F)c4)o3)ccc2[nH]1` [Example 49], the IC50 under setting [2] is 18 nM.

Turning to `Clc1ccc(Nc2nnc(COc3ccc4[nH]ncc4c3)o2)cc1Cl` [Example 50], the IC50 under setting [1] was less than 200 nM. On the same count and under the same terms, to `O=c1ccc2cc(OCc3nnc(Nc4ccc(Cl)c(C(F)(F)F)c4)o3)ccc2[nH]1` [Example 51] belongs less than 200 nM; to `CC(C)c1ccc(Nc2nnc(COc3ccc4[nH]c(=O)ccc4c3)o2)cc1` [Example 52], less than 200 nM.

On to `O=c1ccc2cc(OCc3nnc(Nc4cc(Cl)cc(Cl)c4)o3)ccc2[nH]1` [Example 53], for which the IC50 under setting [2] was 4040 nM. `O=c1ccc2cc(OCc3nnc(Nc4ccccc4C(F)(F)F)o3)ccc2[nH]1` [Example 54]: the IC50 under setting [1] is greater than 10000 nM. Take `O=c1ccc2cc(OCc3nnc(Nc4ccc(Cl)c(OC(F)(F)F)c4)o3)ccc2[nH]1` [Example 55]: the IC50 under setting [2] is 542 nM. For the compound `O=c1ccc2cc(OCc3nnc(Nc4ccc(Cl)cc4Cl)o3)ccc2[nH]1` [Example 56], under setting [1], the IC50 is greater than 10000 nM. Still for that read-out and setting: to `O=c1ccc2cc(OCc3nnc(Nc4cc(Cl)ccc4Cl)o3)ccc2[nH]1` [Example 57] belongs greater than 10000 nM. `O=c1ccc2cc(OCc3nnc(Nc4cccc(Cl)c4)o3)ccc2[nH]1` [Example 58]: under setting [2], the IC50 came out at 830 nM.

As for `O=c1ccc2cc(OCc3nnc(Nc4cccc(Cl)c4Cl)o3)ccc2[nH]1` [Example 59], the IC50 under setting [1] was less than 200 nM. The same measure, in the same setting: the same measure for `O=c1ccc2cc(OCc3nnc(NCc4ccccc4Cl)o3)ccc2[nH]1` [Example 63]: 1000 to 10000 nM; for `O=c1ccc2cc(OCc3nnc(Nc4c(Cl)cccc4Cl)o3)ccc2[nH]1` [Example 66]: greater than 10000 nM. With `O=c1ccc2cc(OCc3nnc(NCc4ccc(Cl)cc4F)o3)ccc2[nH]1` [Example 67], the IC50 under setting [1] fell in the range of 201 to 1000 nM. As to `O=c1ccc2cc(OCc3nnc(NCc4cccc(F)c4)o3)ccc2[nH]1` [Example 68], the IC50 under setting [1] lay within 201 to 1000 nM. For the compound `O=c1ccc2cc(OCc3nnc(NCc4c(Cl)cccc4Cl)o3)ccc2[nH]1` [Example 70], the IC50 under setting [1] lay within 1000 to 10000 nM. The same measure, in the same setting: to `O=c1ccc2cc(OCc3nnc(Nc4ccc(C(F)(F)F)c(Cl)c4)o3)ccc2[nH]1` [Example 73] belongs less than 200 nM; to `O=c1ccc2cc(OCc3nnc(Nc4ccc(OC(F)(F)F)c(Cl)c4)o3)ccc2[nH]1` [Example 74], less than 200 nM. The same measure, in the same setting: to `O=c1ccc2cc(OCc3nnc(NCc4ccccc4C(F)(F)F)o3)ccc2[nH]1` [Example 75] belongs 1000 to 10000 nM; to `O=c1ccc2cc(OCc3nnc(NCc4ccc(C(F)(F)F)cc4)o3)ccc2[nH]1` [Example 76], less than 200 nM. Still for that read-out and setting: the same measure for `O=c1ccc2cc(OCc3nnc(NCc4cccc(Cl)c4)o3)ccc2[nH]1` [Example 77]: 201 to 1000 nM; for `CC1(C)Cc2cc(OCc3nnc(Nc4ccc(Cl)c(Cl)c4)o3)ccc2NC1=O` [Example 80]: 1000 to 10000 nM; for `CC1(C)Cc2cc(OCc3nnc(Nc4ccc(Cl)c(F)c4)o3)ccc2NC1=O` [Example 83]: 1000 to 10000 nM. Take `CC1(C)Cc2cc(OCc3nnc(NCc4ccc(Cl)c(Cl)c4)o3)ccc2NC1=O` [Example 84]: under setting [1], the IC50 is greater than 10000 nM. Still for that read-out and setting: to `O=c1ccc2cc(OCc3nnc(NCc4ccc5c(c4)OCO5)o3)ccc2[nH]1` [Example 85] belongs 1000 to 10000 nM; to `Cc1cc(CNc2nnc(COc3ccc4[nH]c(=O)ccc4c3)o2)ccc1F` [Example 86], 201 to 1000 nM; to `O=c1ccc2cc(OCc3nnc(Nc4ccc(OC(F)F)c(Cl)c4)o3)ccc2[nH]1` [Example 87], less than 200 nM. For `O=c1ccc2cc(OCc3nnc(Nc4ccc(Cl)c(OC(F)F)c4)o3)ccc2[nH]1` [Example 88], under setting [1], the IC50 was less than 200 nM. On to `O=c1ccc2cc(OCc3nnc(Nc4cccc(Oc5ccccc5)c4)o3)ccc2[nH]1` [Example 89], for which the IC50 under setting [1] lay in the range of 201 to 1000 nM. Still for that read-out and setting: the same measure for `Cc1cc(Nc2nnc(COc3ccc4[nH]c(=O)ccc4c3)o2)ccc1F` [Example 90]: 201 to 1000 nM; for `O=c1ccc2cc(OCc3nnc(Nc4ccc(Oc5ccccc5)cc4)o3)ccc2[nH]1` [Example 91]: 1000 to 10000 nM. In the case of `Cc1ccc(Nc2nnc(COc3ccc4[nH]c(=O)ccc4c3)o2)cc1Cl` [Example 92], the IC50 under setting [1] is less than 200 nM. On the same count and under the same terms, the same measure for `Cc1cccc(CNc2nnc(COc3ccc4[nH]c(=O)ccc4c3)o2)c1` [Example 94]: 201 to 1000 nM; for `O=c1ccc2cc(OCc3nnc(Nc4ccc(F)c(Cl)c4)o3)ccc2[nH]1` [Example 96]: 201 to 1000 nM.
